Measurements from patent US20250351818A1, “PESTICIDAL BAIT COMPOSITION AND PROCESSES RELATED THERETO” (priority 2022, published 2025).

Tests used:
[1] = test system: phytoplasma and spiroplasma (corn stunt); assay: Corn field naturally infected, foliar kasugamycin, severity of the stunts; format: in vivo; conditions: 100 g ai/ha; for severity of the disease (percent of leaf area infected, visual): 1 application/week for 4 weeks
Excerpt: Another major problem is corn stunt disease. S. kunkelii, a spiroplasma often referred to as corn stunt spiroplasma and a Maize bushy stunt phytoplasma (MBSP) can both survive in the maize leafhopper (Dalbulus maidis), and it causes corn stunt disease. Foliar use of insecticides can be used to partially control Dalbulus maidis, however, the use of this method to control corn stunt disease is not very successful. kasugamycin (Ksg) is an aminoglycoside antibiotic. However, we have discovered that mixing kasugamycin with pesticides can control the Dalbulus maidis and S. kunkelii at the same time thereby helping to avoid corn stunt disease brought by the vector Dalbulus maidis. The amount of kasugamycin can vary from 20 g ai/ha to 100 g ai/ha in mixture with the insecticides when used in foliar applications, for example, spinetoram and sulfoxaflor at 18 g ai/ha+32 g ai/ha respectively, or spinetoram and methomyl at 18 g ai/ha and 220 g ai/ha, respectively. However, with the bait composition the amount of kasugamycin to use in the pesticidal bait compositions, based on the total weight of a pesticidal bait composition, is from about 2.0 weight percent to about 0.01 weight percent, preferably from about 1.0 weight percent to about 0.1 weight percent, and even more preferably from about 0.5 weight percent to about 0.25 weight percent. Of course, the kasugamycin weight percent will vary depending on various factors such as, local environmental conditions and pest control effects desired, among other factors.
A corn field with plants naturally infected by both phytoplasma and spiroplasma was sprayed with kasugamycin at 100 g ai/ha. The plants with 4 true-leaves were sprayed with 1 application/week for 4 weeks. Fifteen days after the first application and 15 days after the fourth spraying the severity of the stunts were evaluated visually, considering the percent of leaf area infected (showing symptoms). […]

[2] = test system: stunts (corn stunt disease); assay: Field corn, four foliar applications of pesticides solo and in mixture with kasugamycin, incidence of stunts and yield; format: in vivo; conditions: four foliar applications 7 days apart from V2; 91 days after sowing
Excerpt: Another major problem is corn stunt disease. S. kunkelii, a spiroplasma often referred to as corn stunt spiroplasma and a Maize bushy stunt phytoplasma (MBSP) can both survive in the maize leafhopper (Dalbulus maidis), and it causes corn stunt disease. Foliar use of insecticides can be used to partially control Dalbulus maidis, however, the use of this method to control corn stunt disease is not very successful. kasugamycin (Ksg) is an aminoglycoside antibiotic. However, we have discovered that mixing kasugamycin with pesticides can control the Dalbulus maidis and S. kunkelii at the same time thereby helping to avoid corn stunt disease brought by the vector Dalbulus maidis. The amount of kasugamycin can vary from 20 g ai/ha to 100 g ai/ha in mixture with the insecticides when used in foliar applications, for example, spinetoram and sulfoxaflor at 18 g ai/ha+32 g ai/ha respectively, or spinetoram and methomyl at 18 g ai/ha and 220 g ai/ha, respectively. […]
Four foliar applications of pesticides solo and in mixture with kasugamycin were performed in corn plants in field starting at V2 (2 true-leaves) stage of the crop with 7 days apart. […] The incidence of plants with symptoms of stunts at 53 and 91 days after sowing and the yield were assessed. […]

`C[C@H]1O[C@H](O[C@H]2[C@H](O)[C@@H](O)[C@@H](O)[C@H](O)[C@@H]2O)[C@@H](N)C[C@@H]1NC(=N)C(=O)O` [kasugamycin] was tested, and the “severity of the disease (percent of leaf area infected, visual)” value ([1]; 15 days after the fourth application) was 43%, the “severity of the disease (percent of leaf area infected, visual)” value ([1]; fifteen days after the first application) was 27% and the “reduction of the progression of the disease vs untreated” value ([1]; 15 days after the fourth application (43% vs 54% untreated)) was 20%. For the same compound, the “reduction of the progression of the disease in comparison with the untreated” value [2] was 11%.
